The values that follow come from patent publication US20180155386A1, “PROGESTERONE ANTAGONISTS” (Evestra, Inc., priority 2011, published 2018).

Molecules are shown by their SMILES.

Assay [1] concerns progesterone receptor positive breast cancer. The note with it: rat model of PR positive breast cancer; cited from earlier work.
In assay [2] the test system is nidation (implantation) sites in pregnant rats. Briefly: Antinidation test in rat. It is filed as in vivo, rats (Sprague-Daley). The note with it: rats with implantation sites / rats treated; 3 mg/day s.c. from day 5 of pregnancy, counted at day 9; 0/3 = full progesterone antagonist. As for the experimental part:
For every compound to be screened in rats (Sprague-Daley) 3 control rats (vehicle treated, s.c.), 3 rats treated (s.c.) with a known progestin antagonist and 3 rats treated (s.c.) with the test compound (3 mg/day) are used. Female rats will be placed with male rats for 3 to 4 days and exam the vagina for sperm plugs every morning. The presence of a sperm plug will indicate day 1 of pregnancy. Pregnant rats will be treated daily with 3 mg of the screened compound at beginning on day 5 of pregnancy. At day 9 of gestation the rats will be euthanized and nidation sites counted.

Assay [3] concerns uterine weight of non-pregnant guinea pigs. Briefly: Uterine weights of guinea pigs. It is filed as in vivo. The note with it: 10 mg s.c. from day 10 of cycle; sacrifice day 18; untreated guinea pig 1.2 g; higher than 1.2 g indicates pure progesterone antagonistic activity. As for the experimental part:
3 Non-pregnant guinea pigs in the luteal phase of the cycle will be treated with 10 mg of the compound subcutaneously beginning on day 10 of the cycle. Animals were sacrificed on day 18 after the start of the treatment and the uterine weights were obtained at the time of sacrifice. Comparisons will be made to onapristone-treated animals at 10 mg/animal/day s.c

Assay [4] deals with T1, progesterone receptor-LBD-UAS-bla HEK 293T cells (Homo sapiens, UniProt P06401).
T1 construct: host or cells: HEK 293T
T1 sequence (P06401 679-913 limits assumed): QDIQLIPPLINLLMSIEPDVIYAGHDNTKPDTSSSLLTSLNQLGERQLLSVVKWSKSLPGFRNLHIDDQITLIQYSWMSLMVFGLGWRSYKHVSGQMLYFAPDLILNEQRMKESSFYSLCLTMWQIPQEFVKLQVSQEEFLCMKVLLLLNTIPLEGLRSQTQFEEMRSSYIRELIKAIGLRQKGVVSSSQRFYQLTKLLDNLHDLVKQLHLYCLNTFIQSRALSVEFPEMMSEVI
Briefly: Progesterone Antagonist Screen (GeneBLAzer Beta-lactamase reporter, activated by control agonist R5020). It is filed as cell-based. The note with it: values relative to RU486, which is 100%; HEK 293T reporter cells, agonist R5020 at EC80. On the procedure:
Determination of the agonist/antagonist nature of the test compounds was carried out using Invitrogen's SelectScreen™ Cell-based nuclear receptor profiling service which uses the GeneBLAzer® Beta-lactamase reporter technology. Basically this assay uses a Beta-lactamase cDNA under transcriptional control of an Upstream Activator Sequence (UAS). The UAS is activated by the GAL4 transcription factor DNA binding domain (DBD), which is expressed as a fusion protein with the target receptor ligand binding domain (LBD). Upon ligand binding, the GAL4(DBD)-NR(LDB) binds to the UAS, which controls transcription of Beta-lactamase. Beta-lactamase cleaves a special engineered fluorescent substrate which results in a change in the measured fluorescence wavelength.
The generalized protocol used for the Progesterone Antagonist Screen, activated by control Agonist R5020 is as follows:
The progesterone receptor-LBD-UAS-bla HEK 293T cells are thawed and prepared as described above for the Agonist screen. 4 μL of a 10× serial dilution of control antagonist RU-486 (starting concentration, 100 nM) or test compounds are added to appropriate wells of a TC-Treated assay plate. 32 μL of cell suspension is added to the wells which is then pre-incubated at 37° C./5% CO2 in a humidified incubator with test compounds and control antagonist titration for 30 minutes. 4 μL of a 10× control agonist (see above) at the predetermined EC80 concentration is added to wells containing the control antagonist or test compounds. The plate is incubated for 16-24 hours at 37° C./5% CO2 in a humidified incubator. 8 μL of 1 μM Substrate Loading Solution is added to each well and the plate is incubated for 2 hours at room temperature. The plate is then read on a fluorescence plate reader (Tecan Safire).

Assay [5] relates to human breast cancer cell line T47D. Briefly: In vitro antiproliferative activity in human breast cancer cell line T47D (MTT). The note with it: 168 h, T47D cells, 7 days after cell seeding. It is filed as cell-based. As for the experimental part:
Cells from frozen stock were expanded in T75 cell culture flasks. For the experiment, cells in the logarithmic growth phase (70% confluent) were cultivated for 3 day without estradiol and then washed with PBS, detached by trypsination and suspended in 5 ml of fresh RPMI-1640 medium. Cells were centrifuged for 5 min at 1000 rpm and the pellet was resuspended in RPMI-1640 medium.
Cells were seeded in 96-well plates with a density of 5000 cells/well/in 0.18 mL RPMI-1640 medium. Cells were allowed to attach for 24 h. Visual control for viability at 24 h and cell culture medium change. At this time point, compounds were added in 20 μl to the final concentration. After 3 days medium and compounds where changed again. Finally, 7 days after cell seeding, 20 μl MTT-solution was added to each well and 4 h later the formed tetrazolium salt was measured with a photometer.

Regarding `COCC(=O)[C@@]1(OC(C)=O)CC[C@H]2[C@@H]3CCC4=CC(=O)CCC4=C3[C@@H](c3ccc(N(C)C)cc3)C[C@@]21C` [CDB-4124, Proellex, reference compound], in assay [1], the “development of new tumors” value was “decrease in the development of new tumors” and the tumor size entry is reported as “regression of tumor size”. For the same compound, in assay [2], the “Implantation Sites” value is 0/3. Further, the “Uterine Weights of Guinea Pigs Treated with antiprogestins (grams)” value (shortened to “Uterine Weights of Guinea Pigs Treated”) in assay [3] turned out to be 1.41 grams.

Regarding `CC(=O)c1ccc([C@H]2C[C@@]3(C)[C@@H](CC[C@@]3(O)C#CC(F)(F)F)[C@@H]3CCC4=CC(=O)CCC4=C32)cc1` [Compound 1a, 11β-(4′-Acetylphenyl)-17β-hydroxy-17-(3,3,3-trifluoro-1-propynyl)-estra-4,9-diene-3-one], in assay [2], the “Implantation Sites” value was 1/3. The “Uterine Weights of Guinea Pigs Treated” value in assay [3] amounted to 1.3 grams. Also, the maximal response (Emax) (commonly the maximal effect, on the per cent scale that the assay sets) in assay [4] is 6%. Further, the midpoint of inhibition in assay [5], the IC50, lay at 17 nM.

On to `CC(=O)c1ccc([C@H]2C[C@@]3(C)C(CC[C@@]3(O)/C=C/C(F)(F)F)C3CCC4=CC(=O)CCC4=C32)cc1` (stereo partly drawn) [Compound 1b, 11β-(4′-Acetylphenyl)-17β-hydroxy-17-(3,3,3-trifluoroprop-1(E)-enyl)-estra-4,9-diene-3-one], for which the “Implantation Sites” value in assay [2] is reported as 0/3. Moreover, in assay [3], the “Uterine Weights of Guinea Pigs Treated” value was 0.785 grams. The compound further registered an Emax in assay [4] of 33%. Besides, it took 0.64 nM to reach half-maximal inhibition in assay [5] (IC50).

Turning to `CC(=O)c1ccc([C@H]2C[C@@]3(C)[C@@H](CC[C@@]3(O)CC(F)=C(F)F)[C@@H]3CCC4=CC(=O)CCC4=C32)cc1` [Compound 1c, 11β-(4′-Acetylphenyl)-17β-hydroxy-17-(2,3,3-trifluoroprop-2-enyl)-estra-4,9-diene-3-one], the “Implantation Sites” value in assay [2] was 0/3. The “Uterine Weights of Guinea Pigs Treated” value in assay [3] stood at 1.8 grams. In addition, the Emax in assay [4] came to 21%. Half-maximal inhibition in assay [5] (IC50) required 3.1 nM.

For the compound `C=CC(F)(F)[C@]1(O)CC[C@H]2[C@@H]3CCC4=CC(=O)CCC4=C3[C@@H](c3ccc(C(C)=O)cc3)C[C@@]21C` [Compound 1d, 11β-(4′-Acetylphenyl)-17β-hydroxy-17-(1,1-difluoroprop-2-enyl)-estra-4,9-diene-3-one], the Emax in assay [4] worked out at 119%. Besides, half-maximal inhibition in assay [5] (IC50) required 0.3 nM.

The compound `CCC(F)(F)[C@]1(O)CC[C@H]2[C@@H]3CCC4=CC(=O)CCC4=C3[C@@H](c3ccc(C(C)=O)cc3)C[C@@]21C` [Compound 1e, 11β-(4′-Acetyl-phenyl)-17β-hydroxy-17-(1,1-difluoropropyl)-estra-4,9-diene-3-one] displayed an Emax in assay [4] of 191%. In addition, the IC50 – broadly, the concentration needed to halve the response being measured – in assay [5] was determined as 0.3 nM.

`C[C@]12C[C@H](c3ccc(C(=O)C4CC4)cc3)C3=C4CCC(=O)C=C4CC[C@H]3[C@@H]1CC[C@@]2(O)C(F)(F)C(F)(F)F` [Compound 2a, 11β-(4′-[Cyclopropylcarbonyl]phenyl)-17β-hydroxy-17-(1,1,2,2,2-pentafluoroethyl)-estra-4,9-diene-3-one]: the “Implantation Sites” value in assay [2] is listed as 0/3. The “Uterine Weights of Guinea Pigs Treated” value in assay [3] is 2.3 grams. The Emax in assay [4] was 91%. In assay [5], this compound displayed an IC50 of 1.2 nM.

In assay [4], `CC#C[C@]1(O)CC[C@H]2[C@@H]3CCC4=CC(=O)CCC4=C3[C@@H](c3ccc(C(=O)C4CC4)cc3)C[C@@]21C` [Compound 2b, 11β-(4′-[Cyclopropylcarbonyl]phenyl)-17β-hydroxy-17-(1-propynyl)-estra-4,9-diene-3-one] displayed an Emax of 45%. Besides, in assay [5], the half-inhibitory concentration (IC50) is 0.64 nM.

`C[C@]12C[C@H](c3ccc(C(=O)C4CC4)cc3)C3=C4CCC(=O)C=C4CC[C@H]3[C@@H]1CC[C@@]2(O)CCCO` [Compound 2c, 11β-(4′-[Cyclopropylcarbonyl]phenyl)-17β-hydroxy-17-(3-hydroxypropyl)-estra-4,9-diene-3-one]: the “Uterine Weights of Guinea Pigs Treated” value in assay [3] was 1.35 grams. The same compound gave an Emax in assay [4] of 2%. In assay [5], this compound returned an IC50 of 4.6 nM.

Take `C[C@]12C[C@H](c3ccc(C(=O)C4CC4)cc3)C3=C4CCC(=O)C=C4CCC3C1CC[C@@]2(O)/C=C\CO` (stereo partly drawn) [Compound 2d, 11β-(4′-[Cyclopropylcarbonyl]phenyl)-17β-hydroxy-17-(3-hydroxyprop-1(Z)-enyl)-estra-4,9-diene-3-one]: the “Uterine Weights of Guinea Pigs Treated” value in assay [3] was determined as 0.99 grams. The Emax in assay [4] was 6%.

Consider `C=C1CCO[C@]12CCC1C3CCC4=CC(=O)CCC4=C3[C@@H](c3ccc(C(=O)C4CC4)cc3)C[C@@]12C` (stereo partly drawn) [Compound 2e, 11β-(4′-[Cyclopropylcarbonyl]phenyl)-17,23-epoxy-19,24-dinor-17α-chola-4,9,20-triene-3-one], for which the “Uterine Weights of Guinea Pigs Treated” value in assay [3] is 1.02 grams. The compound further yielded an Emax in assay [4] of 48%. In assay [5], the half-inhibitory concentration (IC50) is 0.37 nM.

In the case of `C[C@]12C[C@H](c3ccc(-c4cccnc4)cc3)C3=C4CCC(=O)C=C4CCC3C1CC[C@@]2(O)/C=C/C(F)(F)F` (stereo partly drawn) [Compound 3a, 11β-(4′-[3-Pyridinyl]phenyl)-17β-hydroxy-17-(3,3,3-trifluoroprop-1(E)-enyl)-estra-4,9-diene-3-one], the “Implantation Sites” value in assay [2] is given as 0/4. Further, the “Uterine Weights of Guinea Pigs Treated” value in assay [3] came to 0.87 grams. The Emax in assay [4] worked out at 190%.

Regarding `C=CC(F)(F)[C@]1(O)CC[C@H]2[C@@H]3CCC4=CC(=O)CCC4=C3[C@@H](c3ccc(-c4cccnc4)cc3)C[C@@]21C` [Compound 3b, 11β-(4′-[3-Pyridinyl]phenyl)-17β-hydroxy-17-(1,1-difluoroprop-2-enyl)-estra-4,9-diene-3-one], the “Implantation Sites” value in assay [2] was 0/4. Also, the Emax in assay [4] amounted to 200%.

Turning to `CC#C[C@]1(O)CC[C@H]2[C@@H]3CCC4=CC(=O)CCC4=C3[C@@H](c3ccc(C(=O)c4ccc(C#N)cc4)cc3)C[C@@]21C` [Compound 4, 11β-(4′-[4-Cyanobenzoyl]phenyl)-17β-hydroxy-17-(1-propynyl)-estra-4,9-diene-3-one], in assay [4], the Emax stood at 38%.

Consider `CN(C)c1ccc([C@H]2C[C@]3(C)[C@@H](CC[C@]3(O)CCCO)[C@@H]3CCC4=CC(=O)CCC4=C32)cc1` [ZK98299, reference compound], for which the “Implantation Sites” value in assay [2] was 2/3. Also, in assay [3], the “Uterine Weights of Guinea Pigs Treated” value worked out at 1.07 grams.
